Usually pKi stands for −log10 of the Ki, conventionally taken in molar units.

pKi: −log10 of the molar value.

The values below come from BindingDB's records for doi:10.1016/s0960-894x(98)00175-9 (Dupont Pharmaceuticals, 1998).

The target in the experiment is T1, Dimer of Gag-Pol polyprotein [489-587] (Human immunodeficiency virus 1, UniProt P12497).
T1 construct: 489-587
Kind of experiment: Protease Inhibition Assay. The following applies: pH 5.5; 37 °C. The method, then: Inhibition of HIV protease was measured by assay of the cleavage of a fluorescent peptide substrate. The fluorescent product (2-aminobenzoyl-Ala-Thr-His-Gln-Val-Tyr) was separated from the fluorescent substrate by anion-exchange HPLC on a Mono-Q anion-exchange column (Pharmacia), and fluorescence was monitored at an excitation wavelength of 330 nm and an emission wavelength of 430 nm. Ki values for inhibitor binding were estimated at fixed concentrations of substrate and inhibitor from fractional activity measurements by use of the modified Michaelis-Menten equation.
For the compound `O=C1N(Cc2ccc(CO)cc2)[C@H](Cc2ccc(F)c(F)c2)[C@H](O)[C@@H](O)[C@@H](Cc2ccc(F)c(F)c2)N1Cc1ccc(CO)cc1` [(4R,5S,6S,7R)-4,7-bis[(3,4-difluorophenyl)methyl]-5,6-dihydroxy-1,3-bis({[4-(hydroxymethyl)phenyl]methyl})-1,3-diazepan-2-one], the pKi was 9.33. With `O=C1N(Cc2ccc(CO)cc2)[C@H](Cc2ccc(F)cc2)[C@H](O)[C@@H](O)[C@@H](Cc2ccc(F)cc2)N1Cc1ccc(CO)cc1` [(4R,5S,6S,7R)-Hexahydro-5,6-dihydroxy-1,3-bis-[[4-(hydroxymethyl)phenyl]methyl]-4,7-bis[(4-fluorophenyl)methyl]-2H-1,3-diazapin-2-one], the pKi was 9.36. To `O=C1N(CC2CC2)[C@H](Cc2cccs2)[C@H](O)[C@@H](O)[C@@H](Cc2cccs2)N1CC1CC1` [(4R,5S,6S,7R)-Hexahydro-5,6-dihydroxy-1,3-bis-(cyclopropylmethyl)-4,7-bis(2-thienylmethyl)-2H-1,3-diazapin-2-one] belongs 8.04; to `COc1ccc(C[C@@H]2[C@H](O)[C@@H](O)[C@@H](Cc3ccc(OC)cc3)N(Cc3ccc(CO)cc3)C(=O)N2Cc2ccc(CO)cc2)cc1` [(4R,5S,6S,7R)-Hexahydro-5,6-dihydroxy-1,3-bis-[[4-(hydroxymethyl)phenyl]methyl]-4,7-bis[(4-methoxyphenyl)methyl]-2H-1,3-diazapin-2-one], 9.62; to `CC(C)C[C@@H]1[C@H](O)[C@@H](O)[C@@H](CC(C)C)N(Cc2ccc(CO)cc2)C(=O)N1Cc1ccc(CO)cc1` [(4R,5S,6S,7R)-5,6-dihydroxy-1,3-bis({[4-(hydroxymethyl)phenyl]methyl})-4,7-bis(2-methylpropyl)-1,3-diazepan-2-one], 7.42. Take `CSCC[C@@H]1[C@H](O)[C@@H](O)[C@@H](CCSC)N(Cc2ccc(CO)cc2)C(=O)N1Cc1ccc(CO)cc1` [(4R,5S,6S,7R)-Hexahydro-5,6-dihydroxy-1,3-bis-[[4-(hydroxymethyl)phenyl]methyl]-4,7-bis[2-(methylthio)ethyl]-2H-1,3-diazapin-2-one]: the pKi is 5.41.

As for `O=C(Nc1nc2ccccc2[nH]1)c1cccc(CN2C(=O)N(Cc3cccc(C(=O)Nc4nc5ccccc5[nH]4)c3)[C@H](Cc3ccccc3)[C@H](O)[C@@H](O)[C@H]2Cc2ccccc2)c1` [N-(1H-1,3-benzodiazol-2-yl)-3-{[(4R,5S,6S,7R)-3-{[3-(1H-1,3-benzodiazol-2-ylcarbamoyl)phenyl]methyl}-4,7-dibenzyl-5,6-dihydroxy-2-oxo-1,3-diazepan-1-yl]methyl}benzamide], the pKi was 10.62. As for `O=C1N(Cc2ccc(CO)cc2)[C@H](Cc2ccncc2)[C@H](O)[C@@H](O)[C@@H](Cc2ccncc2)N1Cc1ccc(CO)cc1` [(4R,5S,6S,7R)-5,6-dihydroxy-1,3-bis({[4-(hydroxymethyl)phenyl]methyl})-4,7-bis(pyridin-4-ylmethyl)-1,3-diazepan-2-one], the figure is 8.32.

As to `O=C1N(Cc2ccc(CO)cc2)[C@H](CC2CCCCC2)[C@H](O)[C@@H](O)[C@@H](CC2CCCCC2)N1Cc1ccc(CO)cc1` [(4R,5S,6S,7R)-4,7-bis(cyclohexylmethyl)-5,6-dihydroxy-1,3-bis({[4-(hydroxymethyl)phenyl]methyl})-1,3-diazepan-2-one], the pKi is 7.49. On to `COc1cccc(C[C@@H]2[C@H](O)[C@@H](O)[C@@H](Cc3cccc(OC)c3)N(Cc3ccc(CO)cc3)C(=O)N2Cc2ccc(CO)cc2)c1` [(4R,5S,6S,7R)-5,6-dihydroxy-1,3-bis({[4-(hydroxymethyl)phenyl]methyl})-4,7-bis[(3-methoxyphenyl)methyl]-1,3-diazepan-2-one], for which the pKi is 9.96.
